Assay results from PMC6466835 (ACS Medicinal Chemistry Letters, 2019).

How the values were obtained:
[1] = Parallel artificial membrane permeation assay; assay type: in vitro ADME; conditions: incubation for 1 h, PBS pH 7.4
[2] = test system: supercoiled plasmid pBR322; assay: DNA cleavage assay; assay type: biochemical
[3] = test system: BxPC-3 pancreatic carcinoma cells; assay: MTT cytotoxicity assay, BxPC-3; assay type: cell-based; conditions: BxPC-3 cells, L-1 versus D-1
[4] = test system: double-stranded oligodeoxynucleotide (dsDNA); assay: ESI-MS analysis of DNA alkylation; assay type: biochemical; conditions: 50 μM compound, 2 μM dsDNA
[5] = 2 h at 37 °C, highest concentration 50 μM

SMILES | PAMPA permeation, in words [1] | DNA cleavage activity [2, 5] | DNA cleavage activity ([2]; 18 h at 37 °C, 5 and 50 μM) | DNA cleavage activity ([2]; 2 h at 37 °C, 5 and 50 μM) | DNA modifications detected by ESI-MS ([4]; 2 h at 37 °C) | DNA modifications detected by ESI-MS ([4]; 18 h at 37 °C) | also measured
CC1(C)CC(Cl)CN(Cc2ccccc2)C1 (stereo not shown) [Compound 3] | barely detected in the acceptor compartment | caused the conversion of supercoiled DNA into the OC form |  |  |  |  | 
CCCCN1CCC[C@@H](Cl)C1 [L-1] |  |  | more active than the racemate 1 |  |  |  | eudismic ratio [3]: ~40
O=C(O)CCCc1ccc(N(CCCl)CCCl)cc1 [chlorambucil, reference compound] |  |  |  | inactive at all concentrations |  |  | 
CCCCN1CC(Cl)CC(C)(C)C1 (stereo not shown) [Compound 2] | barely detected in the acceptor compartment | caused the conversion of supercoiled DNA into the OC form |  |  | additional peaks corresponding to 3-chloropiperidine–DNA adducts were detected | formation of adducts and of abasic lesions | 
CCCCN1CCC[C@H](Cl)C1 [D-1] |  |  | inactive even after prolonged incubation |  |  |  | 
CCCCN1CCCC(Cl)C1 (stereo not shown) [Compound 1] |  |  |  | inactive | exclusively the signal corresponding to the unreacted DNA substrate | formation of adducts and of abasic lesions | 
